pEC50: −log10 of the molar value.

One data set relates to Human respirovirus 3. As to the kind of experiment: microbe, parasite or virus in culture. The following applies: Human respirovirus 3, Vero.
The next data set relates to Yellow fever virus. The data set can be described thus: microbe, parasite or virus in culture. To be noted: Vero.
Data set [1] concerns Coxsackievirus B4. The class given is functional. The following applies: Enterovirus B, Vero.
A further data set relates to Sindbis virus. It is filed as functional. The following applies: Vero.
Data set [2] relates to Mammalian orthoreovirus 1. It is filed as functional. To be noted: Mammalian orthoreovirus 1, Vero.
Data set [3] relates to Coxsackievirus B4. It is filed as functional, cell-based. To be noted: Enterovirus B, HeLa.
The subject of a further data set is MDCK. As to the kind of experiment: Cytotoxicity against dog MDCK cells assessed as reduction in cell viability measured after 5 to 6 days by MTS assay. It is filed as cell-based, Canis lupus familiaris.
The subject of a further data set is Punta Toro virus. The class given is functional. To be noted: Vero.
Data set [4] concerns Vesicular stomatitis virus. As to the kind of experiment: microbe, parasite or virus in culture. The following applies: HeLa.
The nature of data set [5]: cells. The following applies: MDCK.
A further data set has as its system Influenza B virus. As to the kind of experiment: microbe, parasite or virus in culture. To be noted: B/Ned/537/05, MDCK.
Data set [6] concerns Respiratory syncytial virus. It is filed as functional, cell-based. To be noted: human respiratory syncytial virus, HeLa.
Data set [7] is described as follows: cells. To be noted: Influenza A virus, MDCK.
Data set [8] can be described thus: cells. To be noted: Influenza A virus, MDCK. The source holds these as a separate data set.
Data set [9] concerns Influenza A virus. The class given is functional, cell-based. The following applies: A/Ned/378/05(H1N1), MDCK.
In data set [10] the test system is Influenza A virus. It is filed as functional, cell-based. To be noted: A/Ned/378/05(H1N1), MDCK. This is another data set of the same source.

One may read the pEC50 as the EC50 on a negative log10 scale, so that one unit is a factor of ten. Lower therefore signals a large EC50. The CC50 is the concentration that lowers cell viability or growth by half. With `COc1ccc(N2C(N)=NC(N)=NC2(C)C)cc1`, the pEC50 (in the data set with Human respirovirus 3; in the data set with Yellow fever virus; in the data set with Coxsackievirus B4 [1]; in the data set on Sindbis virus; in [2]; in the data set on Coxsackievirus B4 [3]) was under 4.00 throughout. Moreover, the pEC50 (with Punta Toro virus; in data set [4]) was under 4.00 throughout. Further, the CC50 in the data set on MDCK is over 100 µM.
As for `CC1(C)N=C(N)N=C(N)N1c1cccc(F)c1`, the pEC50 in the data set with Human respirovirus 3 is under 4.00; in the data set “cells [5]” it was 6.70; with Influenza B virus it was 5.77; in data set [6], 8.00; in the data set on Yellow fever virus, under 4.00; with Coxsackievirus B4 [1], under 4.00. Besides, the pEC50 with Sindbis virus was under 4.00; in the data set “cells [7]” it was 4.68; in data set [2], 5.02; in “cells [8]”, under 4.00; in the data set with Coxsackievirus B4 [3], under 4.00; in the data set with Punta Toro virus it was under 4.00. In addition, the pEC50 in data set [4] was under 4.00. In the data set on MDCK, the CC50 was over 100 µM.
`CC1(C)N=C(N)N=C(N)N1c1cccc(Br)c1`: the negative logarithm of the EC50 (pEC50) with Human respirovirus 3, with Yellow fever virus, in the data set on Coxsackievirus B4 [1], in the data set with Sindbis virus, in “cells [7]” and in the data set “cells [8]” was under 4.00 in each case. The pEC50 (in the data set with Coxsackievirus B4 [3]; in the data set with Punta Toro virus; in data set [4]) was under 4.00 in each case. Moreover, in the data set on MDCK, the CC50 worked out at 29 µM.
For `CC1(C)N=C(N)N=C(N)N1c1cc(C(F)(F)F)cc(C(F)(F)F)c1`, the pEC50 with Human respirovirus 3 was under 4.00; in the data set “cells [5]”, 6.10; with Influenza B virus, 5.74; in [6], 6.57; in the data set on Yellow fever virus it was under 4.00; with Coxsackievirus B4 [1], under 4.00. For the same compound, the pEC50 in the data set with Sindbis virus is under 4.00; in “cells [7]”, 4.44; in [2], under 4.00; in the data set “cells [8]”, under 4.00; in the data set on Coxsackievirus B4 [3] it was under 4.00; in the data set with Punta Toro virus, under 4.00. This compound showed a pEC50 in data set [4] of under 4.00. In the data set with MDCK, the CC50 is over 100 µM.
As for `NC1=NC2(CCCC2)N(c2cccc(C(F)(F)F)c2)C(N)=N1`, the negative logarithm of the EC50 (pEC50) is under 4.00 with Human respirovirus 3; 6.48 in “cells [5]”; 5.80 in the data set with Influenza B virus; 6.70 in data set [6]; under 4.00 in the data set with Yellow fever virus; under 4.00 in the data set with Coxsackievirus B4 [1]. Moreover, the pEC50 (with Sindbis virus; in the data set “cells [7]”; in [2]; in “cells [8]”; in the data set on Coxsackievirus B4 [3]; with Punta Toro virus) was under 4.00 each time. In data set [4], this compound gave a negative logarithm of the EC50 (pEC50) of under 4.00. Moreover, the CC50 in the data set on MDCK was over 100 µM.
Regarding `NC1=NC2(CCCC2)N(c2cccc(Cl)c2)C(N)=N1`, the pEC50 is under 4.00 with Human respirovirus 3; 6.40 in “cells [5]”; 5.35 with Influenza B virus; 6.66 in data set [6]; under 4.00 in the data set on Yellow fever virus; under 4.00 with Coxsackievirus B4 [1]. In addition, the pEC50 in the data set on Sindbis virus was under 4.00; in the data set “cells [7]”, 4.31; in data set [2] it was under 4.00; in the data set “cells [8]”, under 4.00; in the data set on Coxsackievirus B4 [3], under 4.00; with Punta Toro virus it was under 4.00. Also, the pEC50 in data set [4] is under 4.00. Further, the CC50 in the data set with MDCK is over 100 µM.
For `NC1=NC2(CCCCC2)N(c2cccc(C(F)(F)F)c2)C(N)=N1`, the pEC50 (with Human respirovirus 3; in the data set with Yellow fever virus; in the data set with Coxsackievirus B4 [1]; in the data set on Sindbis virus; in the data set “cells [7]”; in data set [2]) was under 4.00 each time. The pEC50 (in the data set “cells [8]”; with Coxsackievirus B4 [3]; in the data set on Punta Toro virus; in [4]) was under 4.00 each time. For the same compound, in the data set with MDCK, the CC50 was over 100 µM.
As to `NC1=NC2(CCCCC2)N(c2cccc(Cl)c2)C(N)=N1`, the pEC50 in the data set with Human respirovirus 3 was under 4.00; in “cells [5]” it was 5.52; with Influenza B virus it was 5.00; in the data set on Yellow fever virus, under 4.00; in the data set with Coxsackievirus B4 [1], under 4.00; in the data set with Sindbis virus, under 4.00. For the same compound, the pEC50 (in the data set “cells [7]”; in data set [2]; in “cells [8]”; with Coxsackievirus B4 [3]; in the data set on Punta Toro virus; in data set [4]) was under 4.00 in each case. Moreover, in the data set on MDCK, the CC50 is over 100 µM.
Consider `CC1(C)N=C(N)N=C(N)N1c1ccccc1`, for which the pEC50 (in the data set on Human respirovirus 3; in the data set with Yellow fever virus; with Coxsackievirus B4 [1]; in the data set on Sindbis virus; in data set [2]; in the data set with Coxsackievirus B4 [3]) was under 4.00 in each case. Besides, the pEC50 (in the data set on Punta Toro virus; in data set [4]) was under 4.00 throughout. Moreover, the half-maximal cytotoxic concentration (CC50) in the data set with MDCK was over 100 µM.
Turning to `CC1(C)N=C(N)N=C(N)N1c1ccc(F)cc1`, the pEC50 (in the data set with Human respirovirus 3; in the data set with Yellow fever virus; in the data set with Coxsackievirus B4 [1]; in the data set on Sindbis virus; in [2]; with Coxsackievirus B4 [3]) was under 4.00 each time. Also, the pEC50 (with Punta Toro virus; in data set [4]) was under 4.00 in each case. For the same compound, the cytotoxic concentration (CC50) in the data set with MDCK is over 100 µM.
For the compound `CC1(C)N=C(N)N=C(N)N1c1cccc(Cl)c1`, the pEC50 in the data set on Human respirovirus 3, in the data set with Yellow fever virus, in the data set with Coxsackievirus B4 [1], with Sindbis virus, in the data set with Coxsackievirus B4 [3] and with Punta Toro virus was under 4.00 in each case. In addition, the pEC50 in data set [4] is under 4.00. In addition, the CC50 in the data set on MDCK was 1.4 µM.
In the case of `NC12CC3CC(CC(C3)C1)C2` [AMANTADINE], the pEC50 in “cells [5]” is under 3.40; in the data set with Influenza B virus, under 3.40; with Influenza A virus [9], 5.66; in the data set “cells [7]”, 3.68; in the data set “cells [8]” it was 3.91; with Influenza A virus [10], 5.64. In addition, the CC50 in the data set on MDCK was over 400 µM.
In the case of `CC1(C)N=C(N)N=C(N)N1c1ccc(Cl)cc1` [CYCLOGUANIL], the pEC50 (in the data set on Human respirovirus 3; in the data set on Yellow fever virus; in the data set on Coxsackievirus B4 [1]; in the data set on Sindbis virus; in data set [2]; in the data set on Coxsackievirus B4 [3]) was under 4.00 in each case. The pEC50 (with Punta Toro virus; in data set [4]) was under 4.00 each time. Besides, the CC50 in the data set on MDCK was determined as 52 µM.
For the compound `COc1c(C)c2c(c(O)c1C/C=C(\C)CCC(=O)O)C(=O)OC2` [MYCOPHENOLIC ACID], the pEC50 in the data set with Human respirovirus 3 was 6.40; with Yellow fever virus, 5.64; in the data set on Coxsackievirus B4 [1], under 4.00; in the data set on Sindbis virus, 5.85.
For `CCc1nc(N)nc(N)c1-c1ccc(Cl)cc1` [PYRIMETHAMINE], the pEC50 in the data set with Yellow fever virus is under 4.00; in the data set “cells [7]”, under 4.08; in the data set “cells [8]”, under 4.08; in the data set with Coxsackievirus B4 [3], under 4.00; in the data set with Punta Toro virus, under 4.00; in data set [4], under 4.00. Also, the CC50 in the data set on MDCK was found to be 41 µM.
Regarding `CC(N)C12CC3CC(CC(C3)C1)C2` (stereo not given) [RIMANTADINE], the pEC50 in the data set “cells [5]” and in the data set with Influenza B virus was under 3.40 each time. Also, the CC50 in the data set on MDCK was over 400 µM.
Take `CC(=O)N[C@H]1[C@H]([C@H](O)[C@H](O)CO)OC(C(=O)O)=C[C@@H]1N=C(N)N` [ZANAMIVIR]: the pEC50 in “cells [5]” is 7.26; in the data set on Influenza B virus, 7.22; in the data set “cells [7]”, 5.17; in “cells [8]” it was 5.64. The CC50 in the data set on MDCK is over 100 µM.
